This is an account of results in US20170252278A1, “INHIBITION OF MATURATION OF DENTAL BIOFILM AND CARIOGENIC PROPERTIES” (KONINKLIJKE PHILIPS N.V., priority 2014, published 2017).

What all share (assay type): cell-based
Experiment [1] deals with in vitro oral plaque biofilms. In words: Microbial composition of biofilms by 16S rDNA sequencing. The following applies: for shift in composition (Streptococcus down, Veillonella and Actinobacillus up) versus control: 10 μM; for Actinobacillus, share of biofilm composition / Actinomyces, share of biofilm composition / Campylobacter, share of biofilm composition / Fusobacterium, share of biofilm composition / Granulicatella, share of biofilm composition / Haemophilus, share of biofilm composition / Megasphaera, share of biofilm composition / Neisseria, share of biofilm composition / Other taxa, share of biofilm composition / Porphyromonas, share of biofilm composition / Prevotella, share of biofilm composition / Rothia, share of biofilm composition / Solobacterium, share of biofilm composition / Streptococcus, share of biofilm composition / Unclass. Pasteurellaceae, share of biofilm composition / Veillonella, share of biofilm composition: 3-Oxo-N 100 μM, furanones 10 μM. How it is done: DNA was isolated using phenol bead-beating followed by Agowa isolation, following the manufacturers instructions (LGC Genomics, Mag mini kit). Briefly, cells were mechanically disrupted four times at 1200 rpm for two minutes in addition of Tris-saturated Phenol, pH8, 0.1 mm zirconium beads and Mag lysis buffer. The DNA-containing phase was mixed with binding buffer and magnetic beads. DNA concentration was estimated by determining the absorbance at 260 nm using the nanodrop (Isogen, ND-1000).
PCR was performed in a final volume of 25 μl containing 1 μl of each primer ([…]), 1 μl dNTP (10 mM), 2.5 μl 10× DreamTaq Buffer including MgCl2 (Thermo Scientific), 0.2 μl DreamTaq DNA Polymerase (5 u/μ1, Thermo Scientific) and 50 ng of DNA. Initial denaturation was performed at 94° C. for 4 min, followed by 35 cycles of denaturation at 94° C. for 30 s, 54° C. annealing for 1 min, 72° C. for 1 min primer extension and a final extension at 72° C. for 5 min. Product formation was confirmed by electrophoresis of 5 μl on a 1% (w/v) agarose gel (Sphearo Q, Leiden, The Netherlands) stained with ethidium bromide.
These samples were analyzed by 16S rDNA Illumina sequencing at TNO Zeist (Netherlands).
Table 3. Microbial composition of biofilms grown for 48 (Table 3A) or 96 h (Table 3B) in the presence of different QS inhibitors. Composition was determined by 16S rDNA sequencing. The composition of the original inoculum used for all biofilms was also determined. “Unclass.” means: unclassified.

In experiment [2] the test system is in vitro oral plaque biofilms. The experiment can be described thus: In vitro oral plaque biofilm formation in the Amsterdam Active Attachment Model, CFU determination. The following applies: for effect on in vitro oral plaque biofilm formation: 10 μM, difference less than one log, not considered biologically relevant. How it is done:
Stimulated saliva, used as inoculum, was collected on ice from ten donors. Saliva was donated 24 h after last brushing. The saliva was diluted 2-fold with 60% sterile glycerol, aliquoted and stored at −80° C. Before use, a pooled sample was prepared by mixing 200 μl of thawed saliva of each donor and vortexing for 30 seconds. In vitro oral plaque biofilms were inoculated 1:50 with pooled saliva.
In vitro oral plaque biofilms were grown in the Amsterdam Active Attachment Model (AAA-model, Exterkate et al. (2010)), assembled with glass coverslips (diameter 12 mm; Menzel, Braunschweig, Germany). The model was inoculated for 8 h with pooled saliva in buffered semi-defined McBain medium (2.5 g/l mucin (Sigma, St Louis, Mo.), 2.0 g/l Bacto peptone (Difco, Detroit, Mich.), 2.0 g/l Trypticase peptone (BBL, Cockeysville, Md.), 1.0 g/l yeast extract (BD Diagnostic Systems, Sparks, Md.), 0.35 g/l NaCl, 0.2 g/l KCl, 0.2 g/l CaCl2, 1 mg/l hemin (Sigma, St. Louis, Mo., USA), and 2 mg/l vitamin K1 (McBain et al. (2005)), with 50 mmol/1 PIPES at pH 7.0), with 0.2% sucrose.
In vitro oral plaque biofilms were grown in the AAA-model for 48-96 h in the presence of the compounds tested. The model was inoculated with saliva and incubated anaerobically at 37° C. for 8 hours to allow microbes to attach to the glass coverslips. After 8 hours of attachment, the inoculation medium was refreshed and in vitro oral plaque biofilms were grown for 16 hours. This refreshment routine was repeated daily until the day of harvesting.
In vitro oral plaque biofilms were harvested by transferring the glass coverslips into 2 ml phosphate buffered saline (PBS). The biofilms were dispersed using a Vibracell VCX130 sonicator with a maximum of 130 Watts and 20 kHz (Sonics & Materials, Newtown, USA). Bio films were sonicated on ice for 1 minute with a pulse rate of 50% and pulses of 1 second. Vibration amplitude was set to 40%.
To estimate the amount of in vitro oral plaque biofilm formation, total anaerobic colony forming units were determined. Briefly, serial dilutions of the dispersed bio films were made and plated on tryptic soy agar blood plates. Plates were subsequently incubated anaerobically for 96 h at 37° C. and colony forming units were determined by counting the number of colonies for each dilution.

Experiment [3] concerns in vitro oral plaque biofilms. In words: Lactic acid production assay of in vitro oral plaque biofilms. The following applies: for reduction of lactate production / lactic acid production after 96 h of growth: 10 μM; for total lactic acid production per biofilm (FIG. 2): 100 μM, biofilms grown 48 h, 3 h in BPW with 0.2% sucrose. How it is done:
All compounds tested of Table 1 were obtained from Sigma Aldrich. All compounds of Table 2, except 3-oxo-N(2oxocyclohexyl)dodecanamide, were kindly provided by M. Meijler, University of the Negev, Israel. The compounds were dissolved in DMSO and stored at −20 C. The compounds were continuously present at the indicated concentrations during biofilm growth, but not during further phenotypic analysis, i.e. lactate production.
To estimate the cariogenic phenotype, lactic acid production of the in vitro oral plaque biofilms was determined prior to harvesting (Exerkate et al 2010). In short, the biofilms on coverslips were placed in a 24-well plate containing 1.5 ml of BPW with 0.2% sucrose. Lactic acid formation was allowed for 3 hr at 37° C. under anaerobic conditions. The total amount of lactic acid produced in this period was analyzed using a colorimetric assay described previously (van Loveren et al. (2000)) and expressed as mM lactic acid, and as μM lactic acid per 1×10^6 CFU.
Biofilms were grown for 48 h in buffered McBain medium supplemented with 0.2% sucrose in the presence of 100 μM of one of the compounds. Medium was refreshed twice every day. […]

In the case of `O=C1OCC(Br)=C1Br` [3,4-Di-bromo, 3,4-Dibromo-2(5H)-furanone], in experiment [1] (48 h), the “shift in composition (Streptococcus down, Veillonella and Actinobacillus up) versus control” value is given as “absent or even inversed”; the “Actinobacillus, share of biofilm composition” value (shortened to “Actinobacillus, share”) stood at 3.7%; the “Actinomyces, share of biofilm composition” value (“Actinomyces, share” for short) is listed as 0.0%; the “Campylobacter, share of biofilm composition” value (“Campylobacter, share” for short) is on record as 0.2%. Moreover, in experiment [1] (48 h), the “Fusobacterium, share of biofilm composition” value (shortened to “Fusobacterium, share”) was 0.0%; the “Granulicatella, share of biofilm composition” value (“Granulicatella, share” below) was 0.1%; the “Haemophilus, share of biofilm composition” value (shortened to “Haemophilus, share”) came to 0.0%; the “Megasphaera, share of biofilm composition” value (from here on “Megasphaera, share”) is recorded as 0.0%. Besides, in experiment [1] (48 h), the “Neisseria, share of biofilm composition” value was determined as 0.0%; the “Other taxa, share of biofilm composition” value is reported as 0.1%; the “Porphyromonas, share of biofilm composition” value (“Porphyromonas, share” for short) was found to be 0.0%; the “Prevotella, share of biofilm composition” value is 0.0%. Further, in experiment [1] (48 h), the “Rothia, share of biofilm composition” value was found to be 0.0%; the “Solobacterium, share of biofilm composition” value (shortened to “Solobacterium, share”) is 0.1%; the “Streptococcus, share of biofilm composition” value (“Streptococcus, share” below) is on record as 60.8%; the “Unclass. Pasteurellaceae, share of biofilm composition” value (from here on “Unclass. Pasteurellaceae, share”) is listed as 0.2%. In addition, the “Veillonella, share of biofilm composition” value (from here on “Veillonella, share”) in experiment [1] (48 h) is recorded as 34.8%. Also, in experiment [1] (96 h), the “Actinobacillus, share” value is recorded as 3.4%; the “Actinomyces, share” value stood at 0.1%; the “Campylobacter, share” value was 1.6%; the “Fusobacterium, share” value was 0.0%. Moreover, in experiment [1] (96 h), the “Granulicatella, share” value turned out to be 0.2%; the “Haemophilus, share” value amounted to 0.0%; the “Megasphaera, share” value is on record as 0.0%; the “Neisseria, share of biofilm composition” value is 0.0%. In experiment [1] (96 h), the “Other taxa, share of biofilm composition” value is reported as 0.7%; the “Porphyromonas, share” value is listed as 0.0%; the “Prevotella, share of biofilm composition” value is on record as 2.3%; the “Rothia, share of biofilm composition” value came to 0.0%. Further, in experiment [1] (96 h), the “Solobacterium, share” value is given as 0.7%; the “Streptococcus, share” value turned out to be 38.0%; the “Unclass. Pasteurellaceae, share” value was 0.0%; the “Veillonella, share” value amounted to 52.9%. For the same compound, in experiment [2], the “effect on in vitro oral plaque biofilm formation” value is on record as “slightly effect”. Moreover, in experiment [3], the “reduction of lactate production” value was “not observed” and the “lactic acid production after 96 h of growth” value is given as “up-regulate”.
With `CCCCCCCCCCCC(=O)N[C@H]1CCOC1=O` [C12-HSL, N-[(3S)-tetrahydro-2-oxo-3-furanyl]-dodecanamide], the “total lactic acid production per biofilm (FIG. 2)” value in experiment [3] is “no effect”.
Take `O=C1C=C(Br)/C(=C/Br)O1` [Furanone C30, (Z-)-4-Bromo-5-(bromomethylene)-2(5H)-furanone]: in experiment [1] (48 h), the “shift in composition (Streptococcus down, Veillonella and Actinobacillus up) versus control” value is reported as “absent or even inversed”; the “Actinobacillus, share” value is 4.9%; the “Actinomyces, share” value came to 0.1%; the “Campylobacter, share” value amounted to 0.0%. For the same compound, in experiment [1] (48 h), the “Fusobacterium, share” value was 0.0%; the “Granulicatella, share” value was 0.0%; the “Haemophilus, share” value turned out to be 0.0%; the “Megasphaera, share” value was found to be 0.0%. Further, in experiment [1] (48 h), the “Neisseria, share of biofilm composition” value worked out at 0.0%; the “Other taxa, share of biofilm composition” value came to 0.0%; the “Porphyromonas, share” value was determined as 0.0%; the “Prevotella, share of biofilm composition” value is recorded as 0.0%. Besides, in experiment [1] (48 h), the “Rothia, share of biofilm composition” value is listed as 0.0%; the “Solobacterium, share” value was 0.1%; the “Streptococcus, share” value is recorded as 66.2%; the “Unclass. Pasteurellaceae, share” value is given as 0.0%. In addition, in experiment [1] (48 h), the “Veillonella, share” value was found to be 28.6%. In experiment [1] (96 h), the “Actinobacillus, share” value is 4.5%; the “Actinomyces, share” value is on record as 0.3%; the “Campylobacter, share” value was 0.0%; the “Fusobacterium, share” value stood at 0.0%. Besides, in experiment [1] (96 h), the “Granulicatella, share” value is reported as 0.3%; the “Haemophilus, share” value is given as 0.0%; the “Megasphaera, share” value was 0.0%; the “Neisseria, share of biofilm composition” value was found to be 0.0%. In experiment [1] (96 h), the “Other taxa, share of biofilm composition” value was 0.1%; the “Porphyromonas, share” value is on record as 0.0%; the “Prevotella, share of biofilm composition” value is 0.0%; the “Rothia, share of biofilm composition” value is 0.0%. Moreover, in experiment [1] (96 h), the “Solobacterium, share” value is on record as 0.8%; the “Streptococcus, share” value was 34.4%; the “Unclass. Pasteurellaceae, share” value was determined as 0.0%; the “Veillonella, share” value is 59.6%. Besides, the “effect on in vitro oral plaque biofilm formation” value in experiment [2] was “slightly effect”. Also, in experiment [3], the “reduction of lactate production” value is reported as “not observed” and the “lactic acid production after 96 h of growth” value is on record as “up-regulate”.
For the compound `CCCCCCCCCCCCCC(=O)N[C@H]1CCOC1=O` [HSL-C14], the “biofilm production (visible amount of biofilm)” value in experiment [2] (Example 2, 100 μM, 48 h) is “toxic to the formation of biofilm”. In experiment [3], the “total lactic acid production per biofilm (FIG. 2)” value was “reduced lactic acid production”.
